# Earlier results as cited in patent US20060029556A1, “Aqueous-alcoholic depigmenting gels” (GALDERMA RESEARCH & DEVELOPMENT, S.N.C., priority 2002, published 2006).
# Like-named read-outs stand apart in the source and are kept apart here.
compound,measurement,setting,value
Oc1ccc(O)cc1 [hydroquinone],incidence of irritation,hydroquinone concentration 10%,relatively high
same,incidence of irritation,hydroquinone concentration of 2%,virtually nonexistent
same,incidence of irritation,hydroquinone preparations with a 5% dose,reduces greatly
